Reference: patent publication US20240091226A1, “Forms and Formulations Of A Tyrosine Kinase Non-Receptor 1 (TNK1) Inhibitor” (Sumitomo Pharma Oncology, inc., priority 2021, published 2024)
Like-named read-outs stand apart in the source and are kept apart here.

Legend:
[1] = Four-week capsule stability: assay and related substances (HPLC); format: physicochemical; conditions: initial (not stored)
Experimental: Methods: Samples were stored (closed) at 40° C. and […] (RH). Appearance, water content, assay and related substances (HPLC) were tested (n=6), sink dissolution.

[2] = tested on: 10 cell lines from a variety of tumor types; assay: Soft agar colony formation assay (3D colonies); format: cell-based; conditions: for IC50: 3D soft agar colonies
Experimental: (§1) In cancer research, natural cell characteristics and architectures can often be more closely mimicked by 3D cell models than monolayer cultures. The comparative efficacy of compound of structural formula I was explored in 2D and 3D culture systems using the soft agar colony formation assay and PDXO cultures. In each case, viability of the culture was assessed after treatment with compound of structural formula I.
(§2) Soft Agar Colony Formation Assay. Soft agar colony formation assay was performed in 10 cell lines from a variety of tumor types ranging from lung cancers to colorectal and prostate cancers (Pro Quinase Reaction Biology, Project Number: 17262). A complete list of tumor types used in the assay can be found in Table 7.1.

A549 cells = assay: Soft agar colony formation assay, 3D vs 2D; format: cell-based; conditions: for IC50: Homo sapiens, A549, Lung
Experimental: as §1, §2

DU145 cells = assay: Soft agar colony formation assay, 3D vs 2D; format: cell-based; conditions: for IC50: Homo sapiens, DU-145, DU145, Prostate
Experimental: as §1, §2

HT29 cells = assay: Soft agar colony formation assay, 3D vs 2D; format: cell-based; conditions: for IC50: Homo sapiens, HT-29, HT29, Colorectal
Experimental: as §1, §2

[3] = tested on: GA6891B organoid (Gastric); assay: PDXO viability assay (Cell Titre Glo); format: cell-based; conditions: 120 h, 5 days of treatment
Experimental: as §1
(§3) Viability Assay in Patient-Derived Xenograft Organoid Cell Lines (PDXO). To mimic more closely cancer tissue-like architecture, PDX organoids derived from patient-derived xenograft tissue were utilized. Viability assay was performed in 10 PDXO models, and the IC50 values were assessed after 5 days of treatment with compound of structural formula I using Cell Titre Glo.

LU0743B organoid (Lung) = assay: PDXO viability assay (Cell Titre Glo); format: cell-based; conditions: 120 h, 5 days of treatment
Experimental: as §1, §3

[4] = tested on: CR5088B organoid (Colorectal); assay: PDXO viability assay (Cell Titre Glo); format: cell-based; conditions: 120 h, 5 days of treatment
Experimental: as §1, §3

[5] = tested on: CR6863B organoid (Colorectal); assay: PDXO viability assay (Cell Titre Glo); format: cell-based; conditions: 120 h, 5 days of treatment
Experimental: as §1, §3

[6] = tested on: BL5001B organoid (Bladder); assay: PDXO viability assay (Cell Titre Glo); format: cell-based; conditions: 120 h, 5 days of treatment
Experimental: as §1, §3

LU11693B organoid (Lung) = assay: PDXO viability assay (Cell Titre Glo); format: cell-based; conditions: 120 h, 5 days of treatment
Experimental: as §1, §3

[7] = tested on: ES6470B organoid (Esophageal); assay: PDXO viability assay (Cell Titre Glo); format: cell-based; conditions: 120 h, 5 days of treatment
Experimental: as §1, §3

LU11873B organoid (Lung) = assay: PDXO viability assay (Cell Titre Glo); format: cell-based; conditions: 120 h, 5 days of treatment
Experimental: as §1, §3

LU6800B organoid (Lung) = assay: PDXO viability assay (Cell Titre Glo); format: cell-based; conditions: 120 h, 5 days of treatment
Experimental: as §1, §3

10 PDXO models = assay: PDXO viability assay (Cell Titre Glo); format: cell-based; conditions: all of the organoids tested, except CR6863B
Experimental: as §1, §3

[8] = tested on: CR1489B organoid (Colorectal); assay: PDXO viability assay (Cell Titre Glo); format: cell-based; conditions: 120 h, 5 days of treatment
Experimental: as §1, §3

[9] = tested on: 10 cell lines from a variety of tumor types; assay: 2D culture viability (counterpart of soft agar assay); format: cell-based
Experimental: as §1, §2

Apc^Min+/− mice = assay: ApcMin mouse efficacy model; format: in vivo
Experimental: TNK1 upregulation is reported to play a role in the pathogenic process of intestinal barrier disruption in a transgenic mice model of increased TNK1 expression/activation (PMID: 30320600). Therefore, the efficacy of the compound of structural formula I was evaluated in germline mutant mouse model of intestinal neoplasia and cachexia, Apc^Min+/− model, which is also known to induce gut barrier dysfunction (PMID: 21914473). Apc^Min+/− mice are reported to start the development of tumors at approximately 4 weeks of age. Twenty female Apc^Min+/− mice (JAX Stock No: 002020) were enrolled in the study at the age of 10 weeks. Randomization was done based on the body weight, and animals were divided into four treatment groups (5 mice/group). […] Celecoxib is a COX-2 inhibitor, and was used as a positive control because it has been reported to prevent and regress adenomas in APC model (PMID: 11016626). Mice were sacrificed 2 hours after the last dose of total 10 weeks of dosing (71 days), at the age of 20 weeks. After dosing started, the animals were checked daily for morbidity and mortality.

[10] = Homo sapiens, HCT-116, HCT116, Colorectal
[11] = 3D soft agar colonies, read-out: 3D IC50

- Related substance at RRT 0.84 [1]: <0.05%
- Related substance at RRT 0.89 [1]: 0.15%
- Related substance at RRT 0.97 [1]: 0.15%
- Related substance at RRT 1.08 [1]: 0.11%
- Related substance at RRT 1.13 [1]: <0.05%
- Related substance at RRT 1.20 [1]: 0.09%
- Related substance at RRT 1.21 [1]: 0.05%
- Related substance at RRT 1.24 [1]: 0.08%
- Related substance at RRT 1.29 [1]: <0.05%
- Related substance at RRT 1.33 [1]: <0.05%
- Total Impurities [1]: 0.63%
- IC50 ([2]; Homo sapiens, A2058, A2058, Melanoma): 0.98 µM
- IC50 ([2]; Homo sapiens, C-33-A, C33A, Cervical): 0.9 µM
- IC50 [2, 10]: 0.75 µM
- IC50 ([2]; Homo sapiens, LoVo, Colorectal): 2.9 µM
- IC50 ([2]; Homo sapiens, SW948, SW948, Colorectal): 0.73 µM
- IC50 ([2]; PC3, Prostate): 0.87 µM
- IC50 ([2]; T84, Colorectal): 1.5 µM
- shift in IC50, 3D colonies vs 2D (A549 cells; A549): approximately 40 fold
- IC50 (A549 cells; 2D culture, read-out: 2D IC50): > 10 µM
- IC50 (A549 cells; [11]): 0.25 µM
- shift in IC50, 3D colonies vs 2D (DU145 cells; DU145): approximately 19 fold
- IC50 (DU145 cells; 2D culture, read-out: 2D IC50): 2.7 µM
- IC50 (DU145 cells; [11]): 0.14 µM
- shift in IC50, 3D colonies vs 2D (HT29 cells; HT29): approximately 32 fold
- IC50 (HT29 cells; 2D culture, read-out: 2D IC50): 7.68 µM
- IC50 (HT29 cells; [11]): 0.24 µM
Compound: COc1cc(N2CCN(C)CC2)c(Cl)cc1Nc1ncc(Cl)c(Nc2cccnc2N2CCCC2=O)n1 [compound of structural formula I, 1-(3-((5-chloro-2-((5-chloro-2-methoxy-4-(4-methylpiperazin-1-yl)phenyl)amino)pyrimidin-4-yl)amino)pyridin-2-yl)pyrrolidin-2-one]
- sensitivity of 3D colonies compared to 2D counterparts (in words) ([2]; most of the cell lines tested): increased sensitivity
- IC50 [3]: 1.24 µM
- IC50 (LU0743B organoid (Lung)): 2.43 µM
- IC50 [4]: 3.25 µM
- IC50 [5]: 10.1 µM
- IC50 [6]: 0.4 µM
- IC50 (LU11693B organoid (Lung)): 2.12 µM
- IC50 [7]: 0.51 µM
- IC50 (LU11873B organoid (Lung)): 0.44 µM
- IC50 (LU6800B organoid (Lung)): 0.4 µM
- IC50 (10 PDXO models): < 10 µM
- IC50 [8]: 2.18 µM
- IC50 [9, 10]: 3.36 µM
- IC50 ([9]; Homo sapiens, Lovo, Colorectal): 3.58 µM
- IC50 ([9]; PC3, Prostate): > 10 µM
- reduction of spleen size compared to vehicle (Apc^Min+/− mice; 10 mg/kg): approximately 52%
- reduction of spleen size compared to vehicle (Apc^Min+/− mice; 25 mg/kg): approximately 40%
- decrease in number of polyps in the intestine compared to vehicle (Apc^Min+/− mice; 25 mg/kg once daily oral gavage, 10 weeks, female Apc^Min+/− mice): approximately 49%
- mean spleen weight (Apc^Min+/− mice; 25 mpk): 191 mg
- polyp growth (Apc^Min+/− mice; FIG. 8B): inhibits polyp growth
- splenomegaly and inflammation (Apc^Min+/− mice; FIG. 8C): attenuated
